According to patent US20120244567A1, “HUMAN EMBRYONIC STEM CELLS FOR HIGH THROUGHOUT DRUG SCREENING” (BUCK INSTITUTE FOR RESEARCH ON AGING, priority 2009, published 2012):
Counter-ions that a name gives are not always drawn. Like-named read-outs stand apart in the source and are kept apart here.

What was measured:
[1] = system: hESCs and hESC-derived NSCs; test: Comparative ATP screening on hESCs and hESC-derived NSCs (ratio ESC/NSC or NSC/ESC); set-up: hit class in primary screen / ESC/NSC: dose or concentration left out as unconfirmed; conditions: for hit class in primary screen: NINDS primary screen, ATP relative to DMSO controls
Description: Hits were defined based on the ability of a compound to affect ATP levels relative to DMSO controls on each plate.

hESC-derived NSCs = test: ATP assay in hESC-derived NSCs (96-well, primary screen and retest); type: cell-based, human; set-up: cytotoxicity: dose or concentration left out as unconfirmed; toxicity to NSCs (reduced ATP concentrations) / ATP levels in NSC population: unit of the concentration uncertain; conditions: for toxicity to NSCs (reduced ATP concentrations): 1 (unit uncertain), 2.5 (unit uncertain) and 10 (unit uncertain), treated NSCs versus untreated NSCs, untreated and treated hESCs
Description: EBs were then cultured for additional 2-3 days in suspension in neural induction media containing DMEM/F12 with Glutamax, 1×NEAA, 1×N2 and FGF2 (20 ng/ml) prior to attachment on cell culture plates. […] To obtain a pure population of NSCs, rosettes were manually isolated and dissociated into single cells using Accutase. The NSCs population was expanded in Neurobasal media containing 1×NEAA, 1×L-Glutamine (2 mM), 1×B27, LIF and FGF2 20 ng/ml.
Media was changed every day for hESCs and every other day for NSCs and additionally changed prior to drug treatment. The cells were treated with compounds from the NINDS library diluted in […] of either ESC or NSC media to a final concentration of 2.5 mM in 0.01% DMSO. […] For all sampling, ESC and NSC plates were processed in parallel for one drug or control condition at a time.
For ATP measurements, the media was removed, cells were washed 1× in milliQ water and reconstituted in […] ATP-Lite Mammalian Lysis Buffer and shaken for 5 minutes. Two […] aliquots of lysed cells were replated onto separate 96 well plates for later protein measurements.
To identify compounds that are toxic to hESCs, hESC-derived NSCs, or both, we screened 720 FDA-approved drugs of the NINDS collection by testing the toxicity of each drug at a dose of 2.5 mM. For endpoint measurement of cell death caused by drug toxicity, we used a widely accepted ATP assay that measures changes in ATP level as an indicator of cellular response to cell death. In this assay, total ATP content per well was measured and normalized to the total cellular protein.
Three concentrations of each compound (1 mM, 2.5 mM and 10 mM) were used in the retest.

[2] = Prestwick screening data, group: Toxic To NSC (and not ESCs)
[3] = Prestwick screening data, group: Toxic To ESCs (and not NSCs)
[4] = NINDS screening data, […], ATP assay, 48 hours
[5] = Prestwick screening data, group: Toxic to both but (5x) more toxic to ESCs
[6] = Homo sapiens, NINDS primary screen, 48 hours, read-out: NSC ATP values below the control mean

## CN(Cc1cnc2nc(N)nc(N)c2n1)c1ccc(C(=O)N[C@@H](CCC(=O)O)C(=O)O)cc1 (racemic) [Amethopterin (R,S)]
[1]; [2]
  ESC/NSC: 6.45

## COc1ccc2c(c1OC)CN1CCc3cc4c(cc3C1C2)OCO4 (stereo not shown) [(D,L)-Tetrahydroberberine]
[1]; [3]
  NSC/ESC: 2.336

## CC[N+]1(C)[C@@H]2CC[C@H]1CC(OC(=O)[C@@H]1CC[C@@](C(=O)OC3C[C@H]4CC[C@@H](C3)[N+]4(C)CC)(c3ccccc3)c3ccccc31)C2.[Cl-].[Cl-] (stereo partly drawn) [Beta-Belladonnine Dichloroethylate]
[1]; [3]
  NSC/ESC: 2.717

## CC(=O)Oc1ccc(C(c2ccc(OC(C)=O)cc2)c2ccccn2)cc1 [Bisacodyl]
[1]; [2]
  ESC/NSC: 2.701

## CNc1ccc2oc(C[C@H]3O[C@@]4(CC[C@H]3C)O[C@H]([C@H](C)C(=O)c3ccc[nH]3)[C@H](C)C[C@H]4C)nc2c1C(=O)O [Calcimycin]
[1]; [4]
  ESC/NSC: 377.6

## CC[C@@]1(O)C(=O)OCc2c1cc1n(c2=O)Cc2cc3ccccc3nc2-1 [Camptothecine (S,+)]
[1]; [5]
  NSC/ESC: 14.46

## C[C@@]12C(=O)OC(=O)[C@]1(C)[C@H]1CC[C@@H]2O1 [Cantharidin]
[1]; Prestwick screening data, group: Toxic to both but (>5x) more toxic to NSCs
  ESC/NSC: 6.171

## CCCCCCCCCCCCCCCC[N+](C)(C)C.[Br-] [Cetrimonium Bromide]
[1]; [4]
  ESC/NSC: 5.402

## CCCCCCCCCCCCCCCC[n+]1ccccc1 [Cetylpyridinium Chloride]
[1]
  ESC/NSC: 109.4

## CN1Cc2c(ccc3c2OCO3)C2C(O)Cc3cc4c(cc3C21)OCO4 (stereo not drawn) [Chelidonine (+)]
[1]; [2]
  ESC/NSC: 1.999

## CC(C)(C)CC(C)(C)c1ccc(O)c(Cc2ccc(Cl)cc2Cl)c1 [Clofoctol]
hESC-derived NSCs; [6]
  cytotoxicity: ≥ 15%
hESC-derived NSCs; retest
  toxicity to NSCs (reduced ATP concentrations): dose-dependent specific toxicity
[1]
  hit class in primary screen: NSC Killers

## CCN(CC)C(=S)SSC(=S)N(CC)CC [Disulfiram]
[1]; [3]
  NSC/ESC: 10.3

## COc1cccc2c1C(=O)c1c(O)c3c(c(O)c1C2=O)C[C@@](O)(C(=O)CO)C[C@@H]3O[C@H]1C[C@H](N)[C@H](O)[C@H](C)O1 [Doxorubicin Hydrochloride]
[1]; [5]
  NSC/ESC: 8.906

## CC1(C)O[C@@H]2C[C@H]3[C@@H]4C[C@H](F)C5=CC(=O)CC[C@]5(C)[C@H]4[C@@H](O)C[C@]3(C)[C@]2(C(=O)CO)O1 [Flurandrenolide]
[1]; [3]
  NSC/ESC: 2.308

## CCC(=O)O[C@]1(C(=O)SCF)[C@H](C)C[C@H]2[C@@H]3C[C@H](F)C4=CC(=O)C=C[C@]4(C)[C@@]3(F)[C@@H](O)C[C@@]21C [Fluticasone Propionate]
[1]; [3]
  NSC/ESC: 1.954

## Fc1ccc(C(OCCN2CCN(CCCc3ccccc3)CC2)c2ccc(F)cc2)cc1 [Gbr 12909 Dihydrochloride]
[1]; [3]
  NSC/ESC: 1.754

## CCCCC(CC)CN1CN(CC(CC)CCCC)CC(C)(N)C1 (stereo not shown) [Hexetidine]
hESC-derived NSCs; [6]
  cytotoxicity: ≥ 15%
[1]
  hit class in primary screen: NSC Killers

## CC[C@@H](C(=O)[C@@H](C)[C@@H](O)[C@H](C)CCc1ccc(C)c(O)c1C(=O)O)[C@H]1O[C@](CC)([C@H]2CC[C@](O)(CC)[C@H](C)O2)C[C@@H]1C [Lasalocid Sodium Salt]
[1]; [2]
  ESC/NSC: 2.052

## CC1=CC(=O)c2ccccc2C1=O [Menadione]
hESC-derived NSCs; [6]
  cytotoxicity: ≥ 15%
hESC-derived NSCs; retest
  toxicity to NSCs (reduced ATP concentrations): dose-dependent specific toxicity
[1]
  hit class in primary screen: NSC Killers

## COC(=O)Nc1nc2ccc(SC(C)C)cc2[nH]1 [Methiazole]
[1]; [2]
  ESC/NSC: 3.01

## Cl.Cl.c1ccc2c3c([nH]c2c1)C1C2CCC(C4CCCNC42)N1CC3 (stereo not shown) [Nitrarine Dihydrochloride]
[1]; [3]
  NSC/ESC: 1.949

## CC(=O)O[C@H]1C(=O)[C@@]2(C)[C@H]([C@H](OC(=O)c3ccccc3)[C@]3(O)C[C@H](OC(=O)[C@H](O)[C@@H](NC(=O)c4ccccc4)c4ccccc4)C(C)=C1C3(C)C)[C@]1(OC(C)=O)CO[C@@H]1C[C@@H]2O [Paclitaxel]
[1]; [5]
  NSC/ESC: 5.325

## C1CCC(C(CC2CCCCN2)C2CCCCC2)CC1.O=C(O)/C=C\C(=O)O (stereo not shown) [Perhexilline Maleate]
[1]
  hit class in primary screen: NSC Killers

## COc1ccc(C[C@H](N)C(=O)N[C@H]2[C@@H](O)[C@H](n3cnc4c(N(C)C)ncnc43)O[C@@H]2CO)cc1 [Puromycin Dihydrochloride]
[1]; [5]
  NSC/ESC: 10.84

## COc1ccc(CN(CCN(C)C)c2ccccn2)cc1 [Pyrilamine Maleate]
[1]; [3]
  NSC/ESC: 1.934

## CCc1nc(N)nc(N)c1-c1ccc(Cl)cc1 [Pyrimethamine]
[1]; [2]
  ESC/NSC: 2.009

## [O-][n+]1ccccc1[S-].[O-][n+]1ccccc1[S-].[Zn+2] [Pyrithione Zinc]
[1]
  ESC/NSC: 116.4

## C[n+]1cc2c3c(ccc2c2ccc4cc5c(cc4c21)OCO5)OCO3 [Sanguinarine Nitrate]
[1]; [4]
  ESC/NSC: 8.446

## C[n+]1cc2c3c(ccc2c2ccc4cc5c(cc4c21)OCO5)OCO3 [Sanguinarine]
[1]; Prestwick screening data, […]
  ESC/NSC: 102.6

## CO[C@H]1C[C@H](O[C@@H]2/C(C)=C/C[C@@H]3C[C@@H](C[C@]4(CC[C@H](C)[C@@H](C5CCCCC5)O4)O3)OC(=O)[C@@H]3C=C(C)/C(=N/O)[C@H]4OC/C(=C\C=C\[C@@H]2C)[C@]43O)O[C@@H](C)[C@@H]1O [Selamectin]
hESC-derived NSCs; Homo sapiens, NINDS primary screen, 2.5 mM, 48 hours, read-out: NSC ATP values below the control mean
  cytotoxicity at 2500 µM: ≥ 15%
hESC-derived NSCs; retest
  toxicity to NSCs (reduced ATP concentrations): dose-dependent specific toxicity
hESC-derived NSCs; retest, FIG. 2 panel B
  effect on NSC survival among dose responsive compounds: most dramatic effect on NSC survival
[1]
  hit class in primary screen: NSC Killers

## Cc1ccnc(NS(=O)(=O)c2ccc(N)cc2)n1 [Sulfamerazine]
[1]; [3]
  NSC/ESC: 2.003

## C[C@H]1CC[C@]2(NC1)O[C@H]1C[C@H]3[C@@H]4CC[C@H]5C[C@@H](O[C@@H]6O[C@H](CO)[C@H](O[C@@H]7O[C@H](CO)[C@@H](O)[C@H](O[C@@H]8OC[C@@H](O)[C@H](O)[C@H]8O)[C@H]7O[C@@H]7O[C@H](CO)[C@@H](O)[C@H](O)[C@H]7O)[C@H](O)[C@H]6O)CC[C@]5(C)[C@H]4CC[C@]3(C)[C@H]1[C@@H]2C [Tomatine]
[1]; Prestwick screening data, […]
  ESC/NSC: 9.242

## O=c1[nH]c(=O)n([C@H]2C[C@H](O)[C@@H](CO)O2)cc1C(F)(F)F [Trifluridine]
[1]; [2]
  ESC/NSC: 2.955

## COc1cc(-c2ccc(=O)[nH]n2)ccc1OC(F)F [Zardaverine]
[1]; [3]
  NSC/ESC: 1.976

## COC1=CC(=O)C[C@@H](C)[C@]12Oc1c(Cl)c(OC)cc(OC)c1C2=O [griseofulvin]
hESC-derived NSCs; [6]
  cytotoxicity: ≥ 15%
[1]
  hit class in primary screen: NSC Killers

## CN1CCN(CC(=O)N2c3ccccc3C(=O)Nc3cccnc32)CC1 [pirenzepine HCL]
hESC-derived NSCs; [6]
  cytotoxicity: ≥ 15%
hESC-derived NSCs; retest
  toxicity to NSCs (reduced ATP concentrations): dose-dependent specific toxicity
[1]
  hit class in primary screen: NSC Killers

## (−)-Levobunolol Hydrochloride
[1]; [3]
  NSC/ESC: 1.689

## Clofilium Tosylate
[1]; [3]
  NSC/ESC: 2.184
